This is an account of results in ChEMBL document CHEMBL3044944, “Synthesis and evaluation of meta substituted 1-(aryloxypropyl)-4-(chloroaryl) piperazines as potential atypical antipsychotics” (2013).

Activity calls are given as the source filed them. The calls are words filed in the database; no cut-off is given here.

Assay [1] has as its system Mus musculus. Kind of assay: Antipsychotic activity in ip dosed Mus musculus albino lyka (mouse) assessed as reversal of apomorphine-induced mesh climbing administered 10 min prior to apomorphine challenge measured after 10 to 30 min. It is filed as functional. The conditions noted are these: for ED50: Mus musculus, albino lyka, ip.
For assay [2], the system named is Mus musculus. In words: Antipsychotic activity in Mus musculus albino lyka (mouse) assessed as reversal of apomorphine-induced stereotypy at 5 to 10 mg/kg, ip administered 10 min prior to apomorphine challenge measured after 10 to 30 min. It is filed as functional, organism-based.
Assay [3] deals with Mus musculus. In words: Antipsychotic activity in Mus musculus albino lyka (mouse) assessed as reversal of apomorphine-induced mesh climbing at 5 to 10 mg/kg, ip administered 10 min prior to apomorphine challenge measured after 10 to 30 min. It is filed as functional, organism-based.

For `O=Cc1cccc(OCCCN2CCN(Cc3ccc(Cl)cc3)CC2)c1`, in assay [1], the logED50 was 1 and the ED50 stood at 10 mg/kg. The outcome in assay [2] was Active.

`CC(=O)c1cccc(OCCCN2CCN(C(=O)c3ccc(Cl)cc3)CC2)c1`: the result in assay [3] was inactive. Further, the result in assay [2] was Active.

With `O=Cc1cccc(OCCCN2CCN(C(=O)c3ccc(Cl)cc3)CC2)c1`, in assay [3], the outcome was inactive. For the same compound, the outcome in assay [2] was Active.

Take `CC(=O)c1cccc(OCCCN2CCN(Cc3ccccc3Cl)CC2)c1`: in assay [1], the logED50 turned out to be 0.903 and the ED50 came to 8 mg/kg. Moreover, the result in assay [2] was inactive.

Consider `O=Cc1cccc(OCCCN2CCN(C(=O)c3ccccc3Cl)CC2)c1`, for which, in assay [3], the outcome was inactive. The result in assay [2] was Active.

`CC(=O)c1cccc(OCCCN2CCN(C(=O)c3ccccc3Cl)CC2)c1`: the outcome in assay [3] was inactive. Besides, the result in assay [2] was Active.

With `CC(=O)c1cccc(OCCCN2CCN(Cc3ccc(Cl)cc3)CC2)c1`, in assay [1], the logED50 came out at 0.857 and the ED50 came to 7.2 mg/kg. For the same compound, the result in assay [2] was inactive.

Regarding `O=Cc1cccc(OCCCN2CCN(Cc3ccccc3Cl)CC2)c1`, in assay [1], the logED50 is reported as 0.799 and the ED50 was found to be 6.3 mg/kg. For the same compound, in assay [2], the result was inactive.

The term ED50 denotes the dose at which the effect has come halfway, by size or by number of responders.
